In patent US9113629B2, “4-amino-6-(4-substituted-phenyl)-picolinates and 6-amino-2-(4-substituted-phenyl)-pyrimidine-4-carboxylates and their use as herbicides” (DOW AGROSCIENCES LLC, priority 2013, dated 2015):

Tests used:
Experiment in all cases: Pre-emergent Test III, preemergent activity in wheat and barley
[1] = tested on: LAMSS; format: in vivo; settings: for GR50 LAMSS / GR80 LAMSS: 21 days after application, probit analysis; for GR50 LAMSS: dose to kill or control 50%; for GR80 LAMSS: dose to kill or control 80%
Description: (§1) Pre-emergent Test III. Seeds of test species were planted into square plastic pots (10 cm wide) containing sandy loam soil. After planting, all pots were sub-irrigated 16 h prior to compound application. A weighed amount, determined by the highest rate to be tested, of each test compound was placed in a 25 mL glass vial and was dissolved in 4 mL of a 97:3 v/v mixture of acetone and DMSO to obtain concentrated stock solutions. […] The concentrated stock solutions obtained were diluted with 20 mL of an aqueous mixture containing water and 0.02% w/v (weight/volume) of Triton X-155 to obtain spray solutions containing the highest application rates. Additional application rates were obtained by serial dilution of 12 mL of the high rate solution into a solution containing 2 mL of 97:3 v/v mixture of acetone and DMSO and 10 mL of an aqueous mixture containing water and 0.02% w/v (weight/volume) of Triton X-155 to obtain 1⁄2×, 1⁄4×, 1⁄8× and 1/16× rates of the high rate. Compound requirements are based upon a 12 mL application volume at a rate of 187 liters per hectare (L/ha). Formulated compounds were applied to the soil surface with an overhead Mandel track sprayer equipped with […] nozzles calibrated to deliver 187 L/ha over an application area of 0.503 square meters. Control pots were sprayed in the same manner with the solvent blank. The treated pots and control pots were placed in a greenhouse as described above and watered through surface irrigation. After 21 d, the condition of the test pots as compared with that of the untreated pots was determined visually and scored on a scale of 0 to 100 percent where 0 corresponds to no herbicidal effect and 100 corresponds to plant death or lack of emergence from the soil. By applying the well-accepted probit analysis as described by J. Berkson in Journal of the American Statistical Society, 48, 565 (1953) and by D. Finney in “Probit Analysis” Cambridge University Press (1952), the above data can be used to calculate GR20, GR50, GR80 and GR90 values, which are defined as growth reduction factors that correspond to the effective dose of herbicide required to kill or control 20 percent, 50 percent, 80 percent or 90 percent, respectively, of a target plant.

[2] = tested on: LOLSS; format: in vivo, Lolium multiflorum, Lolium rigidum; settings: for GR50 LOLSS / GR80 LOLSS: 21 days after application, probit analysis; for GR50 LOLSS: dose to kill or control 50%; for GR80 LOLSS: dose to kill or control 80%
Description: as §1

[3] = tested on: SETVI; format: in vivo, Setaria viridis; settings: for GR50 SETVI / GR80 SETVI: 21 days after application, probit analysis; for GR50 SETVI: dose to kill or control 50%; for GR80 SETVI: dose to kill or control 80%
Description: as §1

[4] = tested on: TRZSS; format: in vivo, Triticum aestivum; settings: for GR20 TRZSS: 21 days after application, dose to kill or control 20%, probit analysis
Description: as §1

[5] = tested on: HORSS; format: in vivo, Hordeum vulgare; settings: for GR20 HORSS: 21 days after application, dose to kill or control 20%, probit analysis
Description: as §1

[6] = tested on: APESV; format: in vivo, Apera spica-venti; settings: for GR50 APESV / GR80 APESV: 21 days after application, probit analysis; for GR50 APESV: dose to kill or control 50%; for GR80 APESV: dose to kill or control 80%
Description: as §1

Row | SMILES | Visual Growth Reduction (%) 21 Days After Application, LAMSS ([1]; 35 g ai/ha) | Visual Growth Reduction (%) 21 Days After Application, LAMSS ([1]; 70 g ai/ha) | GR50 LAMSS [1] [g ai/ha] | GR80 LAMSS [1] [g ai/ha] | Visual Growth Reduction (%) 21 Days After Application, LOLSS ([2]; 35 g ai/ha) | Visual Growth Reduction (%) 21 Days After Application, LOLSS ([2]; 70 g ai/ha) | GR50 LOLSS [2] [g ai/ha] | GR80 LOLSS [2] [g ai/ha] | Visual Growth Reduction (%) 21 Days After Application, SETVI ([3]; 35 g ai/ha) | Visual Growth Reduction (%) 21 Days After Application, SETVI ([3]; 70 g ai/ha) | GR50 SETVI [3] [g ai/ha] | GR80 SETVI [3] [g ai/ha] | Visual Growth Reduction (%) 21 Days After Application, TRZSS ([4]; 35 g ai/ha) | Visual Growth Reduction (%) 21 Days After Application, TRZSS ([4]; 70 g ai/ha) | GR20 TRZSS [4] [g ai/ha] | Visual Growth Reduction (%) 21 Days After Application, HORSS ([5]; 35 g ai/ha) | Visual Growth Reduction (%) 21 Days After Application, HORSS ([5]; 70 g ai/ha) | GR20 HORSS [5] [g ai/ha] | Visual Growth Reduction (%) 21 Days After Application, APESV ([6]; 35 g ai/ha) | Visual Growth Reduction (%) 21 Days After Application, APESV ([6]; 70 g ai/ha) | also measured
1 | Nc1c(F)c(-c2ccc(Br)c(F)c2F)nc(C(=O)O)c1Cl [Compound 147] | A (95-100) | A (95-100) | 1 | 5 | G (0-29) | G (0-29) | 52 | >70 | E (45-59) | C (75-84) | 17 | >70 | F (30-44) | F (30-44) | 23 | G (0-29) | G (0-29) | 70 | C (75-84) | B (85-94) | GR50 APESV [6]: 19 g ai/ha; GR80 APESV [6]: 33 g ai/ha
2 | Nc1c(F)c(-c2ccc(Br)cc2)nc(C(=O)O)c1Cl [Compound 20] | A (95-100) | A (95-100) | 6 | 9 | G (0-29) | E (45-59) | >70 | >70 | F (30-44) | B (85-94) | 32 | 71 | E (45-59) | E (45-59) | 10 | F (30-44) | E (45-59) | 17 | A (95-100) | A (95-100) | GR50 APESV [6]: 6 g ai/ha; GR80 APESV [6]: 16 g ai/ha
3 | Nc1c(F)c(-c2cc(F)c(Br)cc2F)nc(C(=O)O)c1Cl [Compound 42, 4-amino-6-(4-bromo-2,5-difluorophenyl)-3-chloro-5-fluoropicolinic acid] | A (95-100) | A (95-100) | 1 | 1 | G (0-29) | G (0-29) | >70 | >70 | E (45-59) | D (60-74) | 36 | >70 | E (45-59) | E (45-59) | 5 | F (30-44) | E (45-59) | 11 | B (85-94) | A (95-100) | GR50 APESV [6]: 12 g ai/ha; GR80 APESV [6]: 27 g ai/ha
4 | C=Cc1c(C(=O)O)nc(-c2ccc(Cl)c(F)c2)c(F)c1N [Compound 214] | A (95-100) | A (95-100) | 1 | 2 | G (0-29) | E (45-59) | >70 | >70 | G (0-29) | G (0-29) | >70 | >70 | G (0-29) | F (30-44) | 28 | G (0-29) | G (0-29) | 93 | C (75-84) | A (95-100) | GR50 APESV [6]: 13 g ai/ha; GR80 APESV [6]: 28 g ai/ha
